Our source for the T/C values is PubChem BioAssay AID300 (DTP/NCI, 2004).

Results filed as inconclusive are left out.

The subject of the assay is Madison 109 lung carcinoma i.m., mice, median survival. In words: NCI In Vivo Anticancer Drug Screen. Data for tumor model Madison 109 Lung Carcinoma (intramuscular) in unknown mice. The conditions noted are these: endpoint: median survival time, higher = longer survival. The method, then: The antitumor activity of compounds was measured in mice bearing transplantable tumors. Survival or tumor size were measured and the results are expressed as the measurement made in the treated group (T) divided by the measurement made in the vehicle treated control group (C). The tumor model used in this assay is Madison 109 Lung Carcinoma (intramuscular) in unknown mice

In the case of `NC(C=O)C(O)C(O)C(O)CO` (stereo not drawn), the T/C is, setting by setting: (dose: 400.0 mg/kg/injection, schedule: Q01DX009 (ip), vehicle: saline) 98 % of control; (dose: 800.0 mg/kg/injection, schedule: Q01DX009 (ip), vehicle: saline) 93 % of control; (dose: 1600.0 mg/kg/injection, schedule: Q01DX009 (ip), vehicle: saline) 96 % of control; (dose: 3200.0 mg/kg/injection, schedule: Q01DX009 (ip), vehicle: saline) 110 % of control.

Consider `O=S(=O)(n1ccnc1)C(F)(F)F`, for which the T/C reads like this: (dose: 5.0 mg/kg/injection, schedule: Q01DX001 (ip), vehicle: saline) 98 % of control; (dose: 8.4 mg/kg/injection, schedule: Q01DX001 (ip), vehicle: saline) 88 % of control; (dose: 14.0 mg/kg/injection, schedule: Q01DX001 (ip), vehicle: saline) 92 % of control.

For `CN(C)/N=N/c1nc[nH]c1C(N)=O`, where the note is “dose: 200.0 mg/kg/injection, schedule: Q01DX009 (ip), vehicle: Klucel (hydroxypropylcellulose) (HPC)”, the T/C was 121 % of control.
